From ChEMBL document CHEMBL4507258 (2021)

How the values were obtained:
[1] = test system: Tyrosine-protein kinase ABL1 (Homo sapiens), P00519 [F317L]; settings: Compound concentration 1000.0 nM
[2] = test system: Tyrosine-protein kinase ABL1 (Homo sapiens), P00519 [H396P]; settings: Compound concentration 1000.0 nM
[3] = test system: Tyrosine-protein kinase ABL1 (Homo sapiens), P00519 [M351T]; settings: Compound concentration 1000.0 nM
[4] = target: Calcium/calmodulin-dependent protein kinase type IV (Homo sapiens) (UniProt Q16566); settings: Compound concentration 1000.0 nM
[5] = target: Cyclin-dependent kinase 13 (Homo sapiens) (UniProt Q14004); settings: Compound concentration 1000.0 nM
Sequence of Cyclin-dependent kinase 13 (Homo sapiens) (Q14004 whole entry, looked up): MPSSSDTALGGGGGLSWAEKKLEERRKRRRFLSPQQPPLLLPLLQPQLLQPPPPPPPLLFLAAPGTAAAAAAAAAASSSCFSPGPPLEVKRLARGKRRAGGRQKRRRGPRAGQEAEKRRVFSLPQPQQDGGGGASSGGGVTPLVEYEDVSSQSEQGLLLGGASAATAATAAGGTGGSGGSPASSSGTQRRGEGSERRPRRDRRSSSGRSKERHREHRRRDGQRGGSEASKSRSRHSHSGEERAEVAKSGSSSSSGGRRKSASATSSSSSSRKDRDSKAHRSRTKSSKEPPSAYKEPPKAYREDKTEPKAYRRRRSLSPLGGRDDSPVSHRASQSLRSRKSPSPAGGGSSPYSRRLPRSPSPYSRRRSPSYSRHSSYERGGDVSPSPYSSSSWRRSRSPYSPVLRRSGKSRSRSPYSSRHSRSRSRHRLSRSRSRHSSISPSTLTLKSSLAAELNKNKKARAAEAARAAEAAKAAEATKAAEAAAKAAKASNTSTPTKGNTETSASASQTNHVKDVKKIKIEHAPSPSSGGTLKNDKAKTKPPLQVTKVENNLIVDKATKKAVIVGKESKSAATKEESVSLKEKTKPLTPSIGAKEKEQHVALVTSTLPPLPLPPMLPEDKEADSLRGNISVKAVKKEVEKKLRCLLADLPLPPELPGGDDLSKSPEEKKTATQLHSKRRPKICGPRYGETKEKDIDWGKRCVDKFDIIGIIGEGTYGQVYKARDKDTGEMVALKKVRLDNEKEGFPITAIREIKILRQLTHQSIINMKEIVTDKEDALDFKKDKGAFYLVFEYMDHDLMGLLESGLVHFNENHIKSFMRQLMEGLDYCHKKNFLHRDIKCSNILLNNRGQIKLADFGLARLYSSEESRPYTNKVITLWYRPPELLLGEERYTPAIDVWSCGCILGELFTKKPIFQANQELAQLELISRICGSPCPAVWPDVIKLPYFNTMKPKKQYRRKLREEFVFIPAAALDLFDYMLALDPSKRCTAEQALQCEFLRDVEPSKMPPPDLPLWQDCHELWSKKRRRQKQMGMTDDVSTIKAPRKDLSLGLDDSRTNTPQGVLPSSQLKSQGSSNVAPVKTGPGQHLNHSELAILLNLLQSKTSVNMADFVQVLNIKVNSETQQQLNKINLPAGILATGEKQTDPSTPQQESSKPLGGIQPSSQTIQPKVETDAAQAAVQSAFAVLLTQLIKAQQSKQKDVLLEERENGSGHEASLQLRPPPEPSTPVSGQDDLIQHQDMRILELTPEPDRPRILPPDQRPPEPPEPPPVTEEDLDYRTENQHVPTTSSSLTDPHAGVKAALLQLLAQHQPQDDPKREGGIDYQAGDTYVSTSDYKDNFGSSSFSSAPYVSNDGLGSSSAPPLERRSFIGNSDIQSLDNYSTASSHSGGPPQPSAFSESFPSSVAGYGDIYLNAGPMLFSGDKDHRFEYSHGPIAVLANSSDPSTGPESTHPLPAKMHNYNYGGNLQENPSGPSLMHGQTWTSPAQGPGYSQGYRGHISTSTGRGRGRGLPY

[6] = target: Cyclin-dependent kinase-like 5 (Homo sapiens) (UniProt O76039); settings: Compound concentration 1000.0 nM
Sequence of Cyclin-dependent kinase-like 5 (Homo sapiens) (O76039 whole entry): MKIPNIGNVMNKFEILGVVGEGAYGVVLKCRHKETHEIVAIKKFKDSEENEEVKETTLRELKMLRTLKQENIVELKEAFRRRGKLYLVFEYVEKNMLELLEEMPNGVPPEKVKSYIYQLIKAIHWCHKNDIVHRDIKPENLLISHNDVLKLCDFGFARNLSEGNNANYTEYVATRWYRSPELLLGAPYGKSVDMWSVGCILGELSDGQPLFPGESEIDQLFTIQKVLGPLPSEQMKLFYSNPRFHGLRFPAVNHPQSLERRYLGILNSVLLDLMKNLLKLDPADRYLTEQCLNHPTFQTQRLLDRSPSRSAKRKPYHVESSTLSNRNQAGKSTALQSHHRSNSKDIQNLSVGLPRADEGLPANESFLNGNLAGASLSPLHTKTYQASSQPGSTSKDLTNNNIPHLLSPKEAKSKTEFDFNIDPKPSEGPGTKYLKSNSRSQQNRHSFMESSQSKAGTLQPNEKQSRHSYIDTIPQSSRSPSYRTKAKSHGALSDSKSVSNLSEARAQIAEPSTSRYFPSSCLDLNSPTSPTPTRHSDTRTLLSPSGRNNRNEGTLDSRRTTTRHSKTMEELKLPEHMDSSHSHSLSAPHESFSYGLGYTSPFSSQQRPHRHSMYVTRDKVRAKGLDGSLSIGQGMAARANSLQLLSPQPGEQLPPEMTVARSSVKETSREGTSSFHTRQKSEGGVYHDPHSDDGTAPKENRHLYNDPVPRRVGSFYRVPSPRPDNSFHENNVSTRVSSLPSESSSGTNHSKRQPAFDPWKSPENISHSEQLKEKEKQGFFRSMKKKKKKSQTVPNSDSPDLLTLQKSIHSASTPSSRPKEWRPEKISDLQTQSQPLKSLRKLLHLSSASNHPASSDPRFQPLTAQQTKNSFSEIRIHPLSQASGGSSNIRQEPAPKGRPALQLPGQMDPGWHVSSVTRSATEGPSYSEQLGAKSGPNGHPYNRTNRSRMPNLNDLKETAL

[7] = target: Citron Rho-interacting kinase (Homo sapiens) (UniProt O14578); settings: Compound concentration 1000.0 nM
[8] = target: Megakaryocyte-associated tyrosine-protein kinase (Homo sapiens) (UniProt P42679); settings: Compound concentration 1000.0 nM
[9] = target: Death-associated protein kinase 2 (Homo sapiens) (UniProt Q9UIK4); settings: Compound concentration 1000.0 nM
[10] = target: Dual specificity tyrosine-phosphorylation-regulated kinase 2 (Homo sapiens) (UniProt Q92630); settings: Compound concentration 1000.0 nM
[11] = test system: Epidermal growth factor receptor (Homo sapiens), P00533 [UNDEFINED MUTATION]; settings: Compound concentration 1000.0 nM
[12] = test system: Epidermal growth factor receptor (Homo sapiens), P00533 [T790M]; settings: Compound concentration 1000.0 nM
[13] = target: Fibroblast growth factor receptor 3 (Homo sapiens) (UniProt P22607); settings: Compound concentration 1000.0 nM
[14] = target: Cyclin-G-associated kinase (Homo sapiens) (UniProt O14976); settings: Compound concentration 1000.0 nM
[15] = target: Glycogen synthase kinase-3 beta (Homo sapiens) (UniProt P49841); settings: Compound concentration 1000.0 nM
Sequence of Glycogen synthase kinase-3 beta (Homo sapiens) (P49841 whole entry, looked up): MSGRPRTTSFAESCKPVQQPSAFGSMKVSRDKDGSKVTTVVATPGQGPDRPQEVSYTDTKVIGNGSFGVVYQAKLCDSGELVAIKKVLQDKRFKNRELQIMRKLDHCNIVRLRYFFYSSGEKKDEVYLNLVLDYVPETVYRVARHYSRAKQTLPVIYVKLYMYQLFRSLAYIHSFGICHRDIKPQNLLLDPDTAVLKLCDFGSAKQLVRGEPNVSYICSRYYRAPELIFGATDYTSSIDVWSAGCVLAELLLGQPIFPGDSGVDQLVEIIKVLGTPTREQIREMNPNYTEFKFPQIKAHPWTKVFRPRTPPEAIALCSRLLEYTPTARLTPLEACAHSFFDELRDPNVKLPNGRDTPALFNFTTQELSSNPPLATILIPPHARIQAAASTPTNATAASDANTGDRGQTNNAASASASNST

[16] = target: Inhibitor of nuclear factor kappa-B kinase subunit beta (Homo sapiens) (UniProt O14920); settings: Compound concentration 1000.0 nM
[17] = target: Mitogen-activated protein kinase kinase kinase 15 (Homo sapiens) (UniProt Q6ZN16); settings: Compound concentration 1000.0 nM
[18] = target: Mitogen-activated protein kinase kinase kinase 4 (Homo sapiens) (UniProt Q9Y6R4); settings: Compound concentration 1000.0 nM
[19] = target: Serine/threonine-protein kinase MARK1 (Homo sapiens) (UniProt Q9P0L2); settings: Compound concentration 1000.0 nM
[20] = target: Dual specificity mitogen-activated protein kinase kinase 1 (Homo sapiens) (UniProt Q02750); settings: Compound concentration 1000.0 nM
[21] = target: Dual specificity mitogen-activated protein kinase kinase 7 (Homo sapiens) (UniProt O14733); settings: Compound concentration 1000.0 nM
Sequence of Dual specificity mitogen-activated protein kinase kinase 7 (Homo sapiens) (O14733 whole entry): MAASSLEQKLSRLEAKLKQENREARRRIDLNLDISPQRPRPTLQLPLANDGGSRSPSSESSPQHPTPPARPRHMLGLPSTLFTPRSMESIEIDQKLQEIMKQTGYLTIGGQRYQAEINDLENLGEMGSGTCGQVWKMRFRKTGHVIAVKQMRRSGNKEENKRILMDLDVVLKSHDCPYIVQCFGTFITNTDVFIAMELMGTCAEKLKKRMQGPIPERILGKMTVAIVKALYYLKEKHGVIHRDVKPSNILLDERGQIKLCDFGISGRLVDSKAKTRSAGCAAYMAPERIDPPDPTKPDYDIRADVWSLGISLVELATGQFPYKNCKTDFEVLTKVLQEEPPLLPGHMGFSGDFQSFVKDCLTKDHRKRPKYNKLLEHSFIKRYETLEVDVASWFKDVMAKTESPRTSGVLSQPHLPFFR

[22] = target: Serine/threonine-protein kinase mTOR (Homo sapiens) (UniProt P42345); settings: Compound concentration 1000.0 nM
[23] = target: Serine/threonine-protein kinase Nek11 (Homo sapiens) (UniProt Q8NG66); settings: Compound concentration 1000.0 nM
[24] = target: Serine/threonine-protein kinase Nek2 (Homo sapiens) (UniProt P51955); settings: Compound concentration 1000.0 nM
Sequence of Serine/threonine-protein kinase Nek2 (Homo sapiens) (P51955 whole entry): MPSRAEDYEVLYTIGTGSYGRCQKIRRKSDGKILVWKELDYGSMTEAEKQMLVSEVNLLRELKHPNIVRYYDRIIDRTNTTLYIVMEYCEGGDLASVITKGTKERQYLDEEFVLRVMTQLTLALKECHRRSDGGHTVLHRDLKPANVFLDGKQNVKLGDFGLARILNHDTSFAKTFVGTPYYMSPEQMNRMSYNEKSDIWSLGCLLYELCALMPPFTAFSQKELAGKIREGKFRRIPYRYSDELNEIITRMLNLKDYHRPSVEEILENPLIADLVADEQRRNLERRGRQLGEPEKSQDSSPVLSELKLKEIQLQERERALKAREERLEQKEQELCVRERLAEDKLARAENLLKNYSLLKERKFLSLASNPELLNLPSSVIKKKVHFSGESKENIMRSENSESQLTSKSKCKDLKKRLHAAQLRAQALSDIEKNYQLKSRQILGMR

[25] = target: Serine/threonine-protein kinase NIM1 (Homo sapiens) (UniProt Q8IY84); settings: Compound concentration 1000.0 nM
Sequence of Serine/threonine-protein kinase NIM1 (Homo sapiens) (Q8IY84 whole entry): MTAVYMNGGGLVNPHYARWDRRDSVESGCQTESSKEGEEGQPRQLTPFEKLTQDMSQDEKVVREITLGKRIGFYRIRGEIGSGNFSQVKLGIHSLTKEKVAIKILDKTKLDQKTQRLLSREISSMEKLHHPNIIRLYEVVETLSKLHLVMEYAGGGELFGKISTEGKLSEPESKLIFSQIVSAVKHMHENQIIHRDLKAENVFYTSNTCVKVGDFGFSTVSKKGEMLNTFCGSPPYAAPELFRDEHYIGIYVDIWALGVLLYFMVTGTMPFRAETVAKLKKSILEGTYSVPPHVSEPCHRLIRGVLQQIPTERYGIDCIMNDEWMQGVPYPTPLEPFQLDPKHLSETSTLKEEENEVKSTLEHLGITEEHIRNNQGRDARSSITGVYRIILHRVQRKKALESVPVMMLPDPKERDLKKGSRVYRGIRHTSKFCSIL

[26] = target: Serine/threonine-protein kinase PAK 3 (Homo sapiens) (UniProt O75914); settings: Compound concentration 1000.0 nM
[27] = target: Serine/threonine-protein kinase pim-1 (Homo sapiens) (UniProt P11309); settings: Compound concentration 1000.0 nM
Sequence of Serine/threonine-protein kinase pim-1 (Homo sapiens) (P11309 whole entry, looked up): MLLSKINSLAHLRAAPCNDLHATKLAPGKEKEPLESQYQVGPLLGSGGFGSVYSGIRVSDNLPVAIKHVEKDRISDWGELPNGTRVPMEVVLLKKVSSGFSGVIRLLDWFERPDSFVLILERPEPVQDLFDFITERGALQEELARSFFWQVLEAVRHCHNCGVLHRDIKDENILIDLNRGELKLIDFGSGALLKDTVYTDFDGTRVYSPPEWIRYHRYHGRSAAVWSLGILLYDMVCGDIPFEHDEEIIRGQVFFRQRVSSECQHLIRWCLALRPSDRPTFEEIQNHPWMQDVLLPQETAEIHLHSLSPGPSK

[28] = target: Serine/threonine-protein kinase N2 (Homo sapiens) (UniProt Q16513); settings: Compound concentration 1000.0 nM
[29] = target: Serine/threonine-protein kinase PknB (Mycobacterium tuberculosis) (UniProt P9WI81); settings: Compound concentration 1000.0 nM
[30] = target: Receptor-interacting serine/threonine-protein kinase 2 (Homo sapiens) (UniProt O43353); settings: Compound concentration 1000.0 nM
[31] = target: Dual serine/threonine and tyrosine protein kinase (Homo sapiens) (UniProt Q6XUX3); settings: Compound concentration 1000.0 nM
[32] = target: Ribosomal protein S6 kinase alpha-4 (Homo sapiens) (UniProt O75676); settings: Compound concentration 1000.0 nM
[33] = target: Ribosomal protein S6 kinase alpha-3 (Homo sapiens) (UniProt P51812); settings: Compound concentration 1000.0 nM
[34] = target: Serine/threonine-protein kinase SIK2 (Homo sapiens) (UniProt Q9H0K1); settings: Compound concentration 1000.0 nM
[35] = target: Serine/threonine-protein kinase 36 (Homo sapiens) (UniProt Q9NRP7); settings: Compound concentration 1000.0 nM
[36] = target: Serine/threonine-protein kinase TAO1 (Homo sapiens) (UniProt Q7L7X3); settings: Compound concentration 1000.0 nM
[37] = target: Non-receptor tyrosine-protein kinase TNK1 (Homo sapiens) (UniProt Q13470); settings: Compound concentration 1000.0 nM
[38] = target: Testis-specific serine/threonine-protein kinase 3 (Homo sapiens) (UniProt Q96PN8); settings: Compound concentration 1000.0 nM
[39] = target: Non-receptor tyrosine-protein kinase TYK2 (Homo sapiens) (UniProt P29597); settings: Compound concentration 1000.0 nM
[40] = target: Serine/threonine-protein kinase WNK1 (Homo sapiens) (UniProt Q9H4A3); settings: Compound concentration 1000.0 nM
[41] = target: Mitogen-activated protein kinase kinase kinase 19 (Homo sapiens) (UniProt Q56UN5); settings: Compound concentration 1000.0 nM
[42] = target: Tyrosine-protein kinase ZAP-70 (Homo sapiens) (UniProt P43403); settings: Compound concentration 1000.0 nM
[43] = target: D(3) dopamine receptor (Homo sapiens) (UniProt P35462); settings: Compound concentration 10.0 uM
[44] = target: Histamine H2 receptor (Homo sapiens) (UniProt P25021); settings: Compound concentration 10.0 uM
[45] = target: Alpha-2B adrenergic receptor (Homo sapiens) (UniProt P18089); settings: Compound concentration 10.0 uM
Sequence of Alpha-2B adrenergic receptor (Homo sapiens) (P18089 whole entry): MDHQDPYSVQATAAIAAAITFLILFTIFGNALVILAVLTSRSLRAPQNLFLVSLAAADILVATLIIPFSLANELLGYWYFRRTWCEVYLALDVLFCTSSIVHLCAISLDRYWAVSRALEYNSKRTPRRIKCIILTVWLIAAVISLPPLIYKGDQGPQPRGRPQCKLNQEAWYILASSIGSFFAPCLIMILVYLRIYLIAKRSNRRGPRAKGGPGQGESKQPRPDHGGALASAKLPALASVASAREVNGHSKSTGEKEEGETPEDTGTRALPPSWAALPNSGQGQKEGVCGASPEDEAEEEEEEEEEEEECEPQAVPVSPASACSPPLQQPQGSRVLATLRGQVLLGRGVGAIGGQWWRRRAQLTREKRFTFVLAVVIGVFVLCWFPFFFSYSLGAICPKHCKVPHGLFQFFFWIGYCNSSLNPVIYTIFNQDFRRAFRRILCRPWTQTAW

CCCCN(CCCC)C(=O)CN1C[C@@H](c2cc(OC)c3c(c2)OCO3)[C@H](C(=O)O)[C@H]1CC(C)(C)CCC [A-545]
residual activity [1]: 100% | residual activity [2]: 89.4% | residual activity [3]: 100% | residual activity [4]: 100% | residual activity [5]: 100% | residual activity [6]: 100% | residual activity [7]: 90.5% | residual activity [8]: 100% | residual activity [9]: 99.6% | residual activity [10]: 82.9% | residual activity [11]: 70.3% | residual activity [12]: 86.7% | residual activity [13]: 88.5% | residual activity [14]: 95.8% | residual activity [15]: 100% | residual activity [16]: 100% | residual activity [17]: 99% | residual activity [18]: 85.5% | residual activity [19]: 88.7% | residual activity [20]: 100% | residual activity [21]: 88.6% | residual activity [22]: 100% | residual activity [23]: 100% | residual activity [24]: 98.7% | residual activity [25]: 100% | residual activity [26]: 89.4% | residual activity [27]: 91.7% | residual activity [28]: 100% | residual activity [29]: 92.8% | residual activity [30]: 100% | residual activity [31]: 99.7% | residual activity [32]: 100% | residual activity [33]: 85.4% | residual activity [34]: 100% | residual activity [35]: 75% | residual activity [36]: 97.4% | residual activity [37]: 100% | residual activity [38]: 100% | residual activity [39]: 95.8% | residual activity [40]: 96.8% | residual activity [41]: 100% | residual activity [42]: 98.5% | inhibition [43]: 16.6% | inhibition [44]: 8.46% | inhibition [45]: 50%

CCCCN(CCCC)C(=O)CN1C[C@H](c2cc(OC)c3c(c2)OCO3)[C@@H](C(=O)O)[C@@H]1CC(C)(C)CCC [ABT-546]
residual activity [1]: 100% | residual activity [2]: 96.3% | residual activity [3]: 96.9% | residual activity [4]: 100% | residual activity [5]: 52.5% | residual activity [6]: 71.4% | residual activity [7]: 100% | residual activity [8]: 62.8% | residual activity [9]: 100% | residual activity [10]: 71.4% | residual activity [11]: 100% | residual activity [12]: 79% | residual activity [13]: 100% | residual activity [14]: 100% | residual activity [15]: 100% | residual activity [16]: 81.5% | residual activity [17]: 100% | residual activity [18]: 88.7% | residual activity [19]: 96.5% | residual activity [20]: 64.8% | residual activity [21]: 90.8% | residual activity [22]: 100% | residual activity [23]: 85.8% | residual activity [24]: 100% | residual activity [25]: 100% | residual activity [26]: 100% | residual activity [27]: 100% | residual activity [28]: 100% | residual activity [29]: 85% | residual activity [30]: 100% | residual activity [31]: 68.6% | residual activity [32]: 100% | residual activity [33]: 54.9% | residual activity [34]: 100% | residual activity [35]: 100% | residual activity [36]: 55.6% | residual activity [37]: 100% | residual activity [38]: 100% | residual activity [39]: 85.9% | residual activity [40]: 72.9% | residual activity [41]: 90.3% | residual activity [42]: 70.1% | inhibition [43]: 17.3% | inhibition [44]: 24.3% | inhibition [45]: 9.73%
